Data reported in patent publication US20060046976A1, “Method for increasing the bone mineral density and bone micro-architecture or connectivity of a mammal using N-acylated glucosamines” (priority 2004, published 2006).

Tested on: SCW-arthritis rats
Experiment: Two-dimensional subchondral bone analysis (structure, connectivity/strut analysis, plate thickness) of proximal tibia, SCW-arthritis rats
Type: in vivo, Lewis type rats
[1] = SCW + 20 mg, Middle section/lateral
[2] = SCW + 20 mg, Middle section/medial
[3] = SCW + 200 mg, Middle section/lateral
[4] = SCW + 200 mg, Middle section/medial
[5] = SCW + 200 mg, Posterior/lateral

CCCC(=O)N[C@H]1C(O)O[C@H](CO)[C@@H](O)[C@@H]1O (stereo partly drawn) [GlcNBu, N-butyryl-D-glucosamine]
2D-BV/TV % loss (SCW + 20 mg, Anterior/lateral): 40%
2D-BV/TV Mean ± SEM (SCW + 20 mg, Anterior/lateral): 23.7 ± 2.3%
2D-Tb.N % loss (SCW + 20 mg, Anterior/lateral): 21%
2D-Tb.N Mean ± SEM (SCW + 20 mg, Anterior/lateral): 5.8 ± 0.4 /mm
2D-Tb.Th % loss (SCW + 20 mg, Anterior/lateral): 32%
2D-Tb.Th Mean ± SEM (SCW + 20 mg, Anterior/lateral): 38.7 ± 1.7 um
End Points % loss (SCW + 20 mg, Anterior/lateral): −134%
End Points Mean ± SEM (SCW + 20 mg, Anterior/lateral): 36.2 ± 2.5 1/mm2
Multiple points % loss (SCW + 20 mg, Anterior/lateral): 43%
Multiple points Mean ± SEM (SCW + 20 mg, Anterior/lateral): 9.3 ± 1.6 1/mm2
Node-node struts % loss (SCW + 20 mg, Anterior/lateral): 75%
Node-node struts Mean ± SEM (SCW + 20 mg, Anterior/lateral): 0.8 ± 0.2 mm/mm2
Total Strut length % loss (SCW + 20 mg, Anterior/lateral): 30%
Total Strut length Mean ± SEM (SCW + 20 mg, Anterior/lateral): 5.3 ± 0.4 mm/mm2
2D-BV/TV % loss (SCW + 20 mg, Anterior/medial): 33%
2D-BV/TV Mean ± SEM (SCW + 20 mg, Anterior/medial): 27.2 ± 1.4%
2D-Tb.N % loss (SCW + 20 mg, Anterior/medial): 12%
2D-Tb.N Mean ± SEM (SCW + 20 mg, Anterior/medial): 5.6 ± 0.3 /mm
2D-Tb.Th % loss (SCW + 20 mg, Anterior/medial): 29%
2D-Tb.Th Mean ± SEM (SCW + 20 mg, Anterior/medial): 48.6 ± 1.6 um
End Points % loss (SCW + 20 mg, Anterior/medial): −67%
End Points Mean ± SEM (SCW + 20 mg, Anterior/medial): 22.5 ± 1.7 1/mm2
Multiple points % loss (SCW + 20 mg, Anterior/medial): 42%
Multiple points Mean ± SEM (SCW + 20 mg, Anterior/medial): 9.2 ± 1.0 1/mm2
Node-node struts % loss (SCW + 20 mg, Anterior/medial): 47%
Node-node struts Mean ± SEM (SCW + 20 mg, Anterior/medial): 1.2 ± 0.2 mm/mm2
Total Strut length % loss (SCW + 20 mg, Anterior/medial): 14%
Total Strut length Mean ± SEM (SCW + 20 mg, Anterior/medial): 5.1 ± 0.3 mm/mm2
2D-BV/TV % loss [1]: 13%
2D-BV/TV Mean ± SEM [1]: 24.9 ± 1.6%
2D-Tb.N % loss [1]: 2%
2D-Tb.N Mean ± SEM [1]: 4.6 ± 0.2 /mm
2D-Tb.Th % loss [1]: 11%
2D-Tb.Th Mean ± SEM [1]: 54.3 ± 2.8 um
End Points % loss [1]: −69%
End Points Mean ± SEM [1]: 17.5 ± 1.9 1/mm2
Multiple points % loss [1]: 16%
Multiple points Mean ± SEM [1]: 8.3 ± 1.1 1/mm2
Node-node struts % loss [1]: 3%
Node-node struts Mean ± SEM [1]: 1.0 ± 0.2 mm/mm2
Total Strut length % loss [1]: 14%
Total Strut length Mean ± SEM [1]: 4.0 ± 0.2 mm/mm2
2D-BV/TV % loss [2]: 31%
2D-BV/TV Mean ± SEM [2]: 29.2 ± 2.3%
2D-Tb.N % loss [2]: 1%
2D-Tb.N Mean ± SEM [2]: 4.6 ± 0.2 /mm
2D-Tb.Th % loss [2]: 30%
2D-Tb.Th Mean ± SEM [2]: 63.0 ± 4.0 um
End Points % loss [2]: −184%
End Points Mean ± SEM [2]: 14.1 ± 2.3 1/mm2
Multiple points % loss [2]: 13%
Multiple points Mean ± SEM [2]: 9.9 ± 1.1 1/mm2
Node-node struts % loss [2]: 42%
Node-node struts Mean ± SEM [2]: 1.2 ± 0.2 mm/mm2
Total Strut length % loss [2]: 11%
Total Strut length Mean ± SEM [2]: 4.2 ± 0.3 mm/mm2
2D-BV/TV % loss (SCW + 20 mg, Posterior/lateral): 21%
2D-BV/TV Mean ± SEM (SCW + 20 mg, Posterior/lateral): 24.9 ± 1.5%
2D-Tb.N % loss (SCW + 20 mg, Posterior/lateral): 7%
2D-Tb.N Mean ± SEM (SCW + 20 mg, Posterior/lateral): 4.8 ± 0.2 /mm
2D-Tb.Th % loss (SCW + 20 mg, Posterior/lateral): 19%
2D-Tb.Th Mean ± SEM (SCW + 20 mg, Posterior/lateral): 51.8 ± 1.6 um
End Points % loss (SCW + 20 mg, Posterior/lateral): −100%
End Points Mean ± SEM (SCW + 20 mg, Posterior/lateral): 20.0 ± 1.8 1/mm2
Multiple points % loss (SCW + 20 mg, Posterior/lateral): 55%
Multiple points Mean ± SEM (SCW + 20 mg, Posterior/lateral): 7.8 ± 0.8 1/mm2
Node-node struts % loss (SCW + 20 mg, Posterior/lateral): 30%
Node-node struts Mean ± SEM (SCW + 20 mg, Posterior/lateral): 0.9 ± 0.1 mm/mm2
Total Strut length % loss (SCW + 20 mg, Posterior/lateral): 11%
Total Strut length Mean ± SEM (SCW + 20 mg, Posterior/lateral): 4.3 ± 0.2 mm/mm2
2D-BV/TV % loss (SCW + 20 mg, Posterior/medial): 20%
2D-BV/TV Mean ± SEM (SCW + 20 mg, Posterior/medial): 36.2 ± 1.6%
2D-Tb.N % loss (SCW + 20 mg, Posterior/medial): 3%
2D-Tb.N Mean ± SEM (SCW + 20 mg, Posterior/medial): 6.2 ± 0.2 /mm
2D-Tb.Th % loss (SCW + 20 mg, Posterior/medial): 23%
2D-Tb.Th Mean ± SEM (SCW + 20 mg, Posterior/medial): 59.3 ± 2.3 um
End Points % loss (SCW + 20 mg, Posterior/medial): −216%
End Points Mean ± SEM (SCW + 20 mg, Posterior/medial): 16.2 ± 2.1 1/mm2
Multiple points % loss (SCW + 20 mg, Posterior/medial): 36%
Multiple points Mean ± SEM (SCW + 20 mg, Posterior/medial): 12.6 ± 1.4 1/mm2
Node-node struts % loss (SCW + 20 mg, Posterior/medial): 37%
Node-node struts Mean ± SEM (SCW + 20 mg, Posterior/medial): 1.7 ± 0.3 mm/mm2
Total Strut length % loss (SCW + 20 mg, Posterior/medial): 10%
Total Strut length Mean ± SEM (SCW + 20 mg, Posterior/medial): 5.7 ± 0.3 mm/mm2
2D-BV/TV % loss (SCW + 200 mg, Anterior/lateral): 37%
2D-BV/TV Mean ± SEM (SCW + 200 mg, Anterior/lateral): 24.8 ± 3.4%
2D-Tb.N % loss (SCW + 200 mg, Anterior/lateral): 20%
2D-Tb.N Mean ± SEM (SCW + 200 mg, Anterior/lateral): 6.0 ± 0.7 /mm
2D-Tb.Th % loss (SCW + 200 mg, Anterior/lateral): 30%
2D-Tb.Th Mean ± SEM (SCW + 200 mg, Anterior/lateral): 39.7 ± 2.9 um
End Points % loss (SCW + 200 mg, Anterior/lateral): −120%
End Points Mean ± SEM (SCW + 200 mg, Anterior/lateral): 34.1 ± 4.1 1/mm2
Multiple points % loss (SCW + 200 mg, Anterior/lateral): 37%
Multiple points Mean ± SEM (SCW + 200 mg, Anterior/lateral): 10.3 ± 2.7 1/mm2
Node-node struts % loss (SCW + 200 mg, Anterior/lateral): 64%
Node-node struts Mean ± SEM (SCW + 200 mg, Anterior/lateral): 1.2 ± 0.4 mm/mm2
Total Strut length % loss (SCW + 200 mg, Anterior/lateral): 28%
Total Strut length Mean ± SEM (SCW + 200 mg, Anterior/lateral): 5.4 ± 0.7 mm/mm2
2D-BV/TV % loss (SCW + 200 mg, Anterior/medial): 31%
2D-BV/TV Mean ± SEM (SCW + 200 mg, Anterior/medial): 27.8 ± 2.7%
2D-Tb.N % loss (SCW + 200 mg, Anterior/medial): 10%
2D-Tb.N Mean ± SEM (SCW + 200 mg, Anterior/medial): 5.7 ± 0.6 /mm
2D-Tb.Th % loss (SCW + 200 mg, Anterior/medial): 28%
2D-Tb.Th Mean ± SEM (SCW + 200 mg, Anterior/medial): 49.5 ± 4.3 um
End Points % loss (SCW + 200 mg, Anterior/medial): −99%
End Points Mean ± SEM (SCW + 200 mg, Anterior/medial): 26.7 ± 5.7 1/mm2
Multiple points % loss (SCW + 200 mg, Anterior/medial): 32%
Multiple points Mean ± SEM (SCW + 200 mg, Anterior/medial): 10.7 ± 1.7 1/mm2
Node-node struts % loss (SCW + 200 mg, Anterior/medial): 45%
Node-node struts Mean ± SEM (SCW + 200 mg, Anterior/medial): 1.3 ± 0.3 mm/mm2
Total Strut length % loss (SCW + 200 mg, Anterior/medial): 15%
Total Strut length Mean ± SEM (SCW + 200 mg, Anterior/medial): 5.1 ± 0.5 mm/mm2
2D-BV/TV % loss [3]: 15%
2D-BV/TV Mean ± SEM [3]: 24.1 ± 2.1%
2D-Tb.N % loss [3]: 0%
2D-Tb.N Mean ± SEM [3]: 4.7 ± 0.3 /mm
2D-Tb.Th % loss [3]: 16%
2D-Tb.Th Mean ± SEM [3]: 51.3 ± 2.8 um
End Points % loss [3]: −92%
End Points Mean ± SEM [3]: 19.8 ± 1.7 1/mm2
Multiple points % loss [3]: 2%
Multiple points Mean ± SEM [3]: 9.5 ± 1.9 1/mm2
Node-node struts % loss [3]: 15%
Node-node struts Mean ± SEM [3]: 0.9 ± 0.2 mm/mm2
Total Strut length % loss [3]: 9%
Total Strut length Mean ± SEM [3]: 4.2 ± 0.2 mm/mm2
2D-BV/TV % loss [4]: 17%
2D-BV/TV Mean ± SEM [4]: 35.1 ± 4.1%
2D-Tb.N % loss [4]: −9%
2D-Tb.N Mean ± SEM [4]: 5.1 ± 0.2 /mm
2D-Tb.Th % loss [4]: 24%
2D-Tb.Th Mean ± SEM [4]: 68.5 ± 6.3 um
End Points % loss [4]: −145%
End Points Mean ± SEM [4]: 12.2 ± 2.1 1/mm2
Multiple points % loss [4]: −11%
Multiple points Mean ± SEM [4]: 12.6 ± 1.8 1/mm2
Node-node struts % loss [4]: 4%
Node-node struts Mean ± SEM [4]: 2.0 ± 0.3 mm/mm2
Total Strut length % loss [4]: −2%
Total Strut length Mean ± SEM [4]: 4.9 ± 0.3 mm/mm2
2D-BV/TV % loss [5]: 27%
2D-BV/TV Mean ± SEM [5]: 23.2 ± 1.0%
2D-Tb.N % loss [5]: 13%
2D-Tb.N Mean ± SEM [5]: 4.5 ± 0.2 /mm
2D-Tb.Th % loss [5]: 22%
2D-Tb.Th Mean ± SEM [5]: 49.8 ± 1.7 um
End Points % loss [5]: −114%
End Points Mean ± SEM [5]: 21.4 ± 1.7 1/mm2
Multiple points % loss [5]: 59%
Multiple points Mean ± SEM [5]: 7.1 ± 0.7 1/mm2
Node-node struts % loss [5]: 46%
Node-node struts Mean ± SEM [5]: 0.7 ± 0.1 mm/mm2
Total Strut length % loss [5]: 16%
Total Strut length Mean ± SEM [5]: 4.0 ± 0.2 mm/mm2
2D-BV/TV % loss (SCW + 200 mg, Posterior/medial): 21%
2D-BV/TV Mean ± SEM (SCW + 200 mg, Posterior/medial): 35.9 ± 2.2%
2D-Tb.N % loss (SCW + 200 mg, Posterior/medial): 5%
2D-Tb.N Mean ± SEM (SCW + 200 mg, Posterior/medial): 6.1 ± 0.2 /mm
2D-Tb.Th % loss (SCW + 200 mg, Posterior/medial): 21%
2D-Tb.Th Mean ± SEM (SCW + 200 mg, Posterior/medial): 61.0 ± 3.6 um
End Points % loss (SCW + 200 mg, Posterior/medial): −233%
End Points Mean ± SEM (SCW + 200 mg, Posterior/medial): 17.1 ± 1.8 1/mm2
Multiple points % loss (SCW + 200 mg, Posterior/medial): 29%
Multiple points Mean ± SEM (SCW + 200 mg, Posterior/medial): 13.9 ± 1.8 1/mm2
Node-node struts % loss (SCW + 200 mg, Posterior/medial): 23%
Node-node struts Mean ± SEM (SCW + 200 mg, Posterior/medial): 2.1 ± 0.3 mm/mm2
Total Strut length % loss (SCW + 200 mg, Posterior/medial): 12%
Total Strut length Mean ± SEM (SCW + 200 mg, Posterior/medial): 5.6 ± 0.3 mm/mm2
Subchondral Plate Thickness (SCW + GlcNBu High, lateral epiphysis of proximal tibia): 0.11 ± 0.04 mm
Subchondral Plate Thickness (SCW + GlcNBu High, medial epiphysis of proximal tibia): 0.07 ± 0.04 mm
Subchondral Plate Thickness (SCW + GlcNBu Low, lateral epiphysis of proximal tibia): 0.10 ± 0.04 mm
Subchondral Plate Thickness (SCW + GlcNBu Low, medial epiphysis of proximal tibia): 0.07 ± 0.03 mm
decrease of Subchondral Plate Thickness in arthritis (SCW-arthritis rats, GlcNBu treatment, especially high dose): minimized by GlcNBu treatment
bone connectivity (SCW-arthritis rats, low and high dose GlcNBu): dose-dependent increase in bone connectivity
length of node-to-node struts, untreated arthritis-induced group to high dose group (medial side of the proximal epiphysis, high dose, p=0.034): significant increase
